Consider 20 compounds from ChEMBL document CHEMBL5143744, “Discovery of Tenapanor: A First-in-Class Minimally Systemic Inhibitor of Intestinal Na+/H+ Exchanger Isoform 3” (ACS Med Chem Lett, 2022).

Series [1] in a line: In vivo inhibition of NEH3 in Sprague-Dawley rat assessed as fecal form score at 3 mg/kg, po administered via gavage measured after 6 hrs. It counts as functional.
Series [2] in a line: In vivo inhibition of NEH3 in Sprague-Dawley rat assessed as fecal water content at 3 mg/kg, po administered via gavage measured after 6 hrs. Format: functional. Details: scale not given: the % may be the effect or the level left.
Series [3] in a line: In vivo inhibition of NEH3 in Sprague-Dawley rat assessed as sodium excretion in urine at 3 mg/kg, po administered via gavage measured after 16 hrs by ion chromatography relative to control. Details: scale not given: the % may be the effect or the level left.
For series [4], the target named is Sodium/hydrogen exchanger 3 (Rattus norvegicus, UniProt P26433). Nature of the series: Inhibition of rat NHE3 expressed in opossum kidney cells assessed as reduction in Na-HEPES buffer-mediated pH recovery in presence of NEH1 inhibitor ethyl isopropyl amiloride by BCECF-AM dye based fluorescence assay. It counts as cell-based, Kidney epithelial cell.
Sequence of Sodium/hydrogen exchanger 3 (Rattus norvegicus, UniProt P26433) (P26433 whole entry): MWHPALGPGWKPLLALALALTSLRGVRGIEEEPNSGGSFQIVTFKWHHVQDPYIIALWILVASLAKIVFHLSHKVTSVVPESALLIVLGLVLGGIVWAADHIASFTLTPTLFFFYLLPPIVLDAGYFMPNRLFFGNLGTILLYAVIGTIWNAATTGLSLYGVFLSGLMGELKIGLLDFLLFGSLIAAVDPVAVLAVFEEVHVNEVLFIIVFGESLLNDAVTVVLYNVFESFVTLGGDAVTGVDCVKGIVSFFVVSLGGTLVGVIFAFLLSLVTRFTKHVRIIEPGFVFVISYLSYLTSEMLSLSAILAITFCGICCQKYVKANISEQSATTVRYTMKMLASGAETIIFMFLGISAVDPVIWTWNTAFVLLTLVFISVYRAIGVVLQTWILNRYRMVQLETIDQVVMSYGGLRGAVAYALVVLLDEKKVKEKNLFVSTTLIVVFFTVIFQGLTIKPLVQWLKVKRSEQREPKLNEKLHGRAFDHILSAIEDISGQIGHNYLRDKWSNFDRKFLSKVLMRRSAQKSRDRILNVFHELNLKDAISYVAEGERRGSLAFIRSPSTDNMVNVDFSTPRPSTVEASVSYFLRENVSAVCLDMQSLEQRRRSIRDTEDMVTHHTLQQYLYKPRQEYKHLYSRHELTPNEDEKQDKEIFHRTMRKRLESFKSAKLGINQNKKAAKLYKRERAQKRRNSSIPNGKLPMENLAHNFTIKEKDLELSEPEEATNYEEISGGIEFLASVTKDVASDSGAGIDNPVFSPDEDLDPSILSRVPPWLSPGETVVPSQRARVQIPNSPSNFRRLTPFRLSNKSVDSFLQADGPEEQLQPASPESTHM
For series [5], the target named is T1, Sodium/hydrogen exchanger 3 (Homo sapiens, UniProt P48764).
T1 sequence (P48764 whole entry): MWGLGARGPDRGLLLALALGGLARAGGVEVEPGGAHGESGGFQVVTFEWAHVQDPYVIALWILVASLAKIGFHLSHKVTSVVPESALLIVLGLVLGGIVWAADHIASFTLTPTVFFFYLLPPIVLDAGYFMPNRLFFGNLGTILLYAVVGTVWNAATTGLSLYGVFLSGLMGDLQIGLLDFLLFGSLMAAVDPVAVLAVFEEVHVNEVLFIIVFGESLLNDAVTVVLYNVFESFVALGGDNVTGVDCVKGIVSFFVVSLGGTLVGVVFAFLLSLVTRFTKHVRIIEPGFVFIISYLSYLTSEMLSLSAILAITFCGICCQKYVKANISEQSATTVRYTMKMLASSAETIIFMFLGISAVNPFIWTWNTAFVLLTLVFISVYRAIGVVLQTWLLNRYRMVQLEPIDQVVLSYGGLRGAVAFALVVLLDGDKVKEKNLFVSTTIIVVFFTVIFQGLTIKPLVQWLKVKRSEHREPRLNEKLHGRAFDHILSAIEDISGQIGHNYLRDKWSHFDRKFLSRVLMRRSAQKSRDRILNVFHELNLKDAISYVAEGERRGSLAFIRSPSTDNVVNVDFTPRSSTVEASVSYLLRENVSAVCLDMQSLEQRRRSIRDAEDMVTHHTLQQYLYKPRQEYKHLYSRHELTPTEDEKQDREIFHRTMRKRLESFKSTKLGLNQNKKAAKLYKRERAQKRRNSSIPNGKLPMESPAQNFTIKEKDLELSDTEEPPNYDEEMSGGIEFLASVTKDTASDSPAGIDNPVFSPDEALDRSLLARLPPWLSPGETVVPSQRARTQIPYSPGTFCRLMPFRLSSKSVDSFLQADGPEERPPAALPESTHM
Nature of the series: Inhibition of human NHE3 expressed in opossum kidney cells assessed as reduction in Na-HEPES buffer-mediated pH recovery in presence of NEH1 inhibitor ethyl isopropyl amiloride by BCECF-AM dye based fluorescence assay. It counts as cell-based, Kidney epithelial cell.

Series [6] concerns Rattus norvegicus. Nature of the series: In vivo inhibition of NEH3 in Sprague-Dawley rat assessed as reduction in sodium excretion in urine at 0.1 to 3 mg/kg, po administered via gavage measured after 16 hrs by ion chromatography. It counts as functional, organism-based. Conditions: dose 0.1-3 mg/kg.
A short description of series [7]: Cmax in Sprague-Dawley rat at 30 mg/kg, po administered via gavage by LC-MS/MS analysis. Format: ADME, organism-based. Details: dose 30 mg/kg, route po. Conditions: in vivo.
Series [8] can be described thus: Drug metabolism in Sprague-Dawley rat at 30 mg/kg, po administered via gavage by LC-MS/MS analysis. The following applies: in vivo. It counts as ADME, organism-based.
Series [9] can be described thus: Drug metabolism in Sprague-Dawley rat feces at 0.1 mg/kg, po administered via gavage measured after 72 hrs by LC-MS/MS analysis. Format: ADME, organism-based. The following applies: in vivo.
A short description of series [10]: Drug recovery in Sprague-Dawley rat feces at 0.1 mg/kg, po administered via gavage measured after 72 hrs by LC-MS/MS analysis. Conditions: faeces, read-out: Drug recovery. It counts as ADME, organism-based.
A short description of series [11]: In vivo inhibition of NEH3 in Sprague-Dawley rat assessed as increase in fecal water content at 0.1 to 3 mg/kg, po administered via gavage measured after 6 hrs. It counts as functional. Also on record: scale not given: the % may be the effect or the level left. Conditions: dose 0.1-3 mg/kg.
Series [12] addresses hERG (KCNH2) (Homo sapiens, UniProt Q12809). Nature of the series: Inhibition of human ERG at 10 uM relative to control. Format: toxicity.
A short description of series [13]: Drug recovery in Sprague-Dawley rat feces at 3 mg/kg, po administered via gavage measured after 64 hrs by LC-MS/MS analysis. Conditions: faeces, read-out: Drug recovery. Format: ADME, organism-based.
Series [14] in a line: Drug metabolism in Sprague-Dawley rat feces at 3 mg/kg, po administered via gavage measured after 64 hrs by LC-MS/MS analysis. It counts as ADME, organism-based. Conditions: in vivo.
Series [15] in a line: Cmax in Sprague-Dawley rat at 11 mg/kg, po administered via gavage by LC-MS/MS analysis. It counts as ADME, organism-based. Also on record: dose 11 mg/kg, route po. The following applies: in vivo.
A short description of series [16]: AUC in Sprague-Dawley rat at 11 mg/kg, po administered via gavage by LC-MS/MS analysis. The following applies: in vivo.

Structures are written as SMILES. Active and inactive are the calls of the source. No cut-off for these calls is given here. Bounds are passed on as bounds.

Sequence of hERG (KCNH2) (Q12809 whole entry): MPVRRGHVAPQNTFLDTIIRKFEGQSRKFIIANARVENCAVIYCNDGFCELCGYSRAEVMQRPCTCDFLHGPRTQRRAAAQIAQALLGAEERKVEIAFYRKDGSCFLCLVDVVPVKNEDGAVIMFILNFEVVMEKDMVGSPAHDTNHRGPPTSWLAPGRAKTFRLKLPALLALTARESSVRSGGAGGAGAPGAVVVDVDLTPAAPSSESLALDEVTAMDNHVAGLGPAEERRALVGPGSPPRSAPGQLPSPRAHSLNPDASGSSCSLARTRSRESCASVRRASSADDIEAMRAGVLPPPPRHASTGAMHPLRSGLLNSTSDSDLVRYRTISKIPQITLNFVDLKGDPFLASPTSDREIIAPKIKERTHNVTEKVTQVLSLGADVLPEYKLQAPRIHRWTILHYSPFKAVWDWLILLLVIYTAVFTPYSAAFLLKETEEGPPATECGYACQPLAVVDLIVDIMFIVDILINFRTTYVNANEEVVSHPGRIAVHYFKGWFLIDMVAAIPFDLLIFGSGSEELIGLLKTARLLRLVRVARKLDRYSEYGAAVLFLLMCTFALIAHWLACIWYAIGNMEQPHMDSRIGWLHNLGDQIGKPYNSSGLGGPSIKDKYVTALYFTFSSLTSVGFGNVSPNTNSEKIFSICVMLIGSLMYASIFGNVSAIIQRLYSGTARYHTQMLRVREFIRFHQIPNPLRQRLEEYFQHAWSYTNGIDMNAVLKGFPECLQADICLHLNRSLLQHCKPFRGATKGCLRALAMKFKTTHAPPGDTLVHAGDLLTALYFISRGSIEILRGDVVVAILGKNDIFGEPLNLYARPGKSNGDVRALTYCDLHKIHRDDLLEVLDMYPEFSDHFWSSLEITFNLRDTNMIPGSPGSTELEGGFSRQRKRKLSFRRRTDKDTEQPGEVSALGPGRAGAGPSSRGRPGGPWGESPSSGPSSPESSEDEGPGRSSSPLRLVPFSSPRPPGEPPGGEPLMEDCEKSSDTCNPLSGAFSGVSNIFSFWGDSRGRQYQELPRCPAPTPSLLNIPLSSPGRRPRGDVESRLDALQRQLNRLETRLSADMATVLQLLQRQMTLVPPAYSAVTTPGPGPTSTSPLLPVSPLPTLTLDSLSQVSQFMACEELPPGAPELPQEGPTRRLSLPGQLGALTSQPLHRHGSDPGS

As to `CN1Cc2c(Cl)cc(Cl)cc2C(c2cccc(S(=O)(=O)NCCOCCOCCNC(=O)Nc3ccc(NC(=O)NCCOCCOCCNS(=O)(=O)c4cccc(C5CN(C)Cc6c(Cl)cc(Cl)cc65)c4)cc3)c2)C1` (racemic), the Activity in [1] was determined as 3; in series [2], 60%; in series [3], 32%. Further, the IC50 (as a rule, the concentration needed to halve the response being measured) in [4] was 7.94 nM.
With `CN1Cc2c(Cl)cc(Cl)cc2C(c2cccc(S(=O)(=O)NCCCP(=O)(O)O)c2)C1` (racemic), the 50% inhibitory concentration (IC50) was 5010 nM in series [5] and 63.1 nM in series [4].
Regarding `CN1Cc2c(Cl)cc(Cl)cc2C(c2ccc(S(=O)(=O)NCCOCCOCCNC(=O)Nc3ccc(NC(=O)NCCOCCOCCNS(=O)(=O)c4ccc(C5CN(C)Cc6c(Cl)cc(Cl)cc65)cc4)cc3)cc2)C1` (racemic), the Activity in series [1] amounted to 3; in series [2], 58%; in series [3], 29%.
For `CN1Cc2c(Cl)cc(Cl)cc2C(c2cccc(S(=O)(=O)NCCOCCOCCNS(=O)(=O)c3cccc(C4CN(C)Cc5c(Cl)cc(Cl)cc54)c3)c2)C1` (racemic), the IC50 in series [5] was 5010 nM.
As for `CN1Cc2c(Cl)cc(Cl)cc2[C@H](c2cccc(S(=O)(=O)NCCOCCOCCNC(=O)Nc3ccc(NC(=O)NCCOCCOCCNS(=O)(=O)c4cccc([C@@H]5CN(C)Cc6c(Cl)cc(Cl)cc65)c4)cc3)c2)C1`, in series [6], the inhibition (in general, the percentage by which the read-out fell short of the control) was “Active”. The highest concentration (Cmax) – broadly, the highest concentration seen after dosing – in series [7] was below 2 ng/mL. In addition, the Drug metabolism result in series [8] and in series [9] was “Metabolite_Notdetected” each time. The dose excreted at 72 h in [10] came to 93%. Also, the Activity in series [11] stood at 10%. In addition, in series [5], the 50% inhibitory concentration (IC50) was 1.58 nM. In addition, in [12], the inhibition at 10 µM was below 50%.
With `CN1Cc2c(Cl)cc(Cl)cc2[C@H](c2cccc(S(=O)(=O)NCCOCCOCCOCCNC(=O)NCCOCCOCCOCCNS(=O)(=O)c3cccc([C@@H]4CN(C)Cc5c(Cl)cc(Cl)cc54)c3)c2)C1`, in [6], the inhibition result is “Active”. Further, the Cmax in [7] (Sprague-Dawley, read-out: Cmax) is below 5 ng/mL. The Drug metabolism entry in [8] is recorded as “Metabolite_Notdetected”; in [14], “Metabolite_Detected”. In addition, the dose excreted at 64 h in [13] worked out at 82%. Further, the Activity in [11] is on record as 10%. Further, the inhibition at 10 µM in series [12] was below 50%.
Turning to `CN(CC(=O)NCCOCCOCCNS(=O)(=O)c1ccc(C2CN(C)Cc3c(Cl)cc(Cl)cc32)cc1)CC(=O)NCCOCCOCCNS(=O)(=O)c1ccc(C2CN(C)Cc3c(Cl)cc(Cl)cc32)cc1` (racemic), the Activity in series [1] was 3; in series [2], 57%; in [3], 45%.
On the same counts, the results for `CN1Cc2c(Cl)cc(Cl)cc2C(c2ccc(S(=O)(=O)NCCOCCOCCNC(=O)CCC(=O)NCCOCCOCCNS(=O)(=O)c3ccc(C4CN(C)Cc5c(Cl)cc(Cl)cc54)cc3)cc2)C1` (racemic) are 3.5, 60% and 23%.
`CN1Cc2c(Cl)cc(Cl)cc2C(c2cccc(S(=O)(=O)NCCOCCOCCNC(=O)NCCCCNC(=O)NCCOCCOCCNS(=O)(=O)c3cccc(C4CN(C)Cc5c(Cl)cc(Cl)cc54)c3)c2)C1` (racemic): the Activity in series [1] amounted to 4.5; in series [2], 64%; in [3], 22%. In addition, the IC50 in series [4] is 3.16 nM.
With `CN1Cc2c(Cl)cc(Cl)cc2[C@H](c2cccc(S(=O)(=O)NCCOCCOCCNC(=O)CCC(=O)NCCOCCOCCNS(=O)(=O)c3cccc([C@@H]4CN(C)Cc5c(Cl)cc(Cl)cc54)c3)c2)C1`, the inhibition entry in series [6] is “Active”. In addition, in series [7] (Sprague-Dawley, read-out: Cmax), the maximum concentration (Cmax) is below 2 ng/mL. Moreover, the Drug metabolism entry in series [8] and in series [9] was “Metabolite_Notdetected” throughout. For the same compound, the dose excreted at 72 h in series [10] amounted to 46%. In addition, the Activity in [11] was determined as 10%. This compound gave an inhibition at 10 µM in [12] below 50%.
For `CN1Cc2c(Cl)cc(Cl)cc2C(c2cccc(S(=O)(=O)NCC(=O)O)c2)C1` (racemic), the concentration for half-maximal inhibition (IC50) in series [5] and in [4] was 100 nM throughout.
`CN1Cc2c(Cl)cc(Cl)cc2C(c2cccc(S(=O)(=O)NCCCS(=O)(=O)O)c2)C1` (racemic): the values for the IC50 in series [5] and in series [4] were 1580 nM and 50.1 nM, respectively.
Taken in the same sequence, the figures for `CN1Cc2c(Cl)cc(Cl)cc2[C@@H](c2cccc(NC(=O)[C@H](O)[C@@H](O)[C@H](O)[C@H](O)CO)c2)C1` were 2510 nM and 7940 nM.
On to `CN1Cc2c(Cl)cc(Cl)cc2C(c2cccc(S(=O)(=O)NCCOCCOCCNC(=O)NCCOCCOCCNS(=O)(=O)c3cccc(C4CN(C)Cc5c(Cl)cc(Cl)cc54)c3)c2)C1` (centres undefined), for which the Activity in [1] is 1; in [2], 50%; in series [3], 100%. In [15], this compound showed a Cmax below 5 ng/mL. Moreover, the area under the curve (AUC) (usually the area under the concentration-time curve, a measure of exposure) in series [16] is below 19 ng·h/mL. Besides, the concentration for half-maximal inhibition (IC50) in [5] is 2000 nM.
Turning to `CN1Cc2c(Cl)cc(Cl)cc2C(c2ccc(S(=O)(=O)NCCOCCOCCNC(=O)NCCCCNC(=O)NCCOCCOCCNS(=O)(=O)c3ccc(C4CN(C)Cc5c(Cl)cc(Cl)cc54)cc3)cc2)C1` (racemic), the Activity in series [1] is on record as 3; in series [2], 60%; in series [3], 14%.
Taken in the same sequence, the figures for `CN1Cc2c(Cl)cc(Cl)cc2C(c2ccc(S(=O)(=O)NCCOCCOCCNC(=O)COCC(=O)NCCOCCOCCNS(=O)(=O)c3ccc(C4CN(C)Cc5c(Cl)cc(Cl)cc54)cc3)cc2)C1` (racemic) were 2.5, 59% and 29%.
As to `CN1Cc2c(Cl)cc(Cl)cc2[C@H](c2cccc(S(=O)(=O)NCCOCCOCCOCCNC(=O)NCCCNC(=O)NCCOCCOCCOCCNS(=O)(=O)c3cccc([C@@H]4CN(C)Cc5c(Cl)cc(Cl)cc54)c3)c2)C1`, in series [7] (Sprague-Dawley, read-out: Cmax), the maximum concentration (Cmax) was below 15 ng/mL. Moreover, the Drug metabolism result in series [8] and in series [14] was “Metabolite_Notdetected” in each case. In series [13], the dose excreted at 64 h is 96%. Also, the inhibition at 10 µM in series [12] was below 50%.
For `CN1Cc2c(Cl)cc(Cl)cc2C(c2cccc(S(=O)(=O)NCCOCCOCCOCCNC(=O)NCCCCNC(=O)NCCOCCOCCOCCNS(=O)(=O)c3cccc(C4CN(C)Cc5c(Cl)cc(Cl)cc54)c3)c2)C1` (racemic), the Activity is listed as 3 in [1], 57% in series [2] and 50% in [3].
Turning to `CN1Cc2c(Cl)cc(Cl)cc2C(c2cccc(S(=O)(=O)NCCOCCOCCOCCNC(=O)Nc3ccc(NC(=O)NCCOCCOCCOCCNS(=O)(=O)c4cccc(C5CN(C)Cc6c(Cl)cc(Cl)cc65)c4)cc3)c2)C1` (racemic), the Activity in series [1] came out at 2; in series [2] it was 54%; in series [3], 42%. Further, the concentration for half-maximal inhibition (IC50) in series [4] is 6310 nM.
Turning to `CN1Cc2c(Cl)cc(Cl)cc2C(c2cccc(NC(=O)[C@H](O)[C@@H](O)[C@H](O)[C@H](O)CO)c2)C1` (mixture of isomers), the IC50 is 50.1 nM in series [5] and 39.8 nM in series [4].
